Here are results for 7 compounds from US10183941B2, “Pyrimidine or pyridopyridone compound and application thereof” (GUANGZHOU BEBETTER MEDICINE TECHNOLOGY CO., LTD., priority 2015, dated 2019).

SMILES strings stand for the structures. Where two headings read alike, the source gives them in different places.

Series [1] addresses T1, CDK6 (GST-CDK6(1-326end)) (Homo sapiens, UniProt Q00534).
T1 construct: GST-CDK6(1-326end); purchased Carna 04-107
Put plainly: CDK6 activity inhibition experiment (Caliper mobility shift assay). It is filed as biochemical. Conditions: enzyme activity inhibition; read-out: CDK6 IC50 class. On the procedure:
The activity of CDK6 protein kinase was measured using Caliper mobility shift assay (see J. Biomol Screen 14:31, 2009). […] 10 μl of the 2.5 times diluted CDK6 enzyme solution (GST-CDK6(1-326end); Carna, Cat. No 04-107) was added and then incubated at room temperature for 10 minutes, then 10 μl of the 2.5 times diluted substrate solution Peptide FAM-P8 (GL Biochem, Cat. No. 112396) was added. After being incubated at 28° C. for 40 minutes, 25 μl of stop solution was added to stop the reaction. Conversion rate data was read from Caliper EZ Reader II (Caliper Life Sciences). The conversion rate data was converted into inhibition rate data. […] Conversion rate data was converted into inhibition rate data according to the method described above. Inhibition rate %=(max−conversion rate)/(max−min)×100.

Series [2] concerns the target T2, CDK2 (Homo sapiens, UniProt P24941).
T2 construct: purchased Carna 04-103
Nature of the series: CDK2 activity inhibition experiment (Caliper mobility shift assay). It is filed as biochemical. Particulars: enzyme activity inhibition; read-out: CDK2 IC50 class. As to the method: After being incubated at 28° C. for 60 minutes, 25 μl of stop solution was added to stop the reaction. Conversion rate data was read from Caliper EZ Reader II (Caliper Life Sciences). The conversion rate data was converted into inhibition rate data. […] The curve was plotted with compound concentration and inhibition rate as horizontal and vertical coordinates, and the IC50 was calculated by fitting the curve using XLFit excel add-in version 4.3.1 software. Inhibition rate %=(max-conversion rate)/(max-min)×100.

Series [3] has as its target T3, CDK4 (GST-CDK4(1-303end)/GST-CycD3(1-292end)) (Homo sapiens, UniProt P11802).
T3 construct: GST-CDK4(1-303end); purchased Carna 04-105
Put plainly: CDK4 activity inhibition experiment (Caliper mobility shift assay). In kind it is biochemical. Particulars: enzyme activity inhibition; read-out: CDK4 IC50 class.

Series [4] relates to SW620. Nature of the series: Tumor cell proliferation inhibition (CellTiter-Glo), SW620. In kind it is cell-based. Particulars: Homo sapiens, SW-620; 72 hours, 10% fetal bovine serum; read-out: SW620 IC50 class. As to the method: (§1) The content of adenosine triphosphate (ATP) was determined using the CellTiter-Glo Luminescent Cell Viability Assay Kit (Promega, Madison, Wis.) to evaluate cell viability. Tumor cell lines (SW620, ZR-75-1, MDA-MB-231) were purchased from the Cell Resource Center of IBS, Fudan University, Shanghai and the American Type Culture Collection (ATCC). The cell density was determined using Scepter automated cell counter (Millipore # PHCC00000) after the cells were digested with pancreatin in cell culture dishes and resuspended in DPBS medium. The cells were diluted to a solution of 44,000 cells per ml. The cell solution of which density was adjusted was added into the cell assay plate at 90 microliters per well. The well plate was incubated in an incubator with 5% CO2 at 37° C. for 24 hours and then added with test compounds with different concentrations. The cells were incubated with the compounds in the presence of 10% fetal bovine serum for 72 hours. ATP content was assayed using the CellTiter-Glo® Luminescent Cell Viability Assay kit (see instructions of manufacturer) to assess cell growth inhibition. Briefly, 30 μl of CellTiter-Glo® reagent was added to each well, rocked for 10 minutes to induce cell lysis, and […] were detected and recorded with Fluoroskan Ascent FL (Thermo). The maximum signal value was obtained from the cells treated with dimethyl sulfoxide for 72 hours. The minimum signal value was obtained from the separate culture medium (cell number was zero). Inhibition rate %=(maximum signal value−compound signal value)/(maximum signal value−minimum signal value)×100. Data was processed using GraphPad Prism V5.0 (GraphPad Software, San Diego, Calif.) software. IC50 values were calculated by fitting S-shaped dose-response curves.
In general terms: Cellular ATP, detected with luciferase, serves as a proxy for viable cell number.

The subject of series [5] is ZR-75-1. Put plainly: Tumor cell proliferation inhibition (CellTiter-Glo), ZR-75-1. In kind it is cell-based. Conditions: Homo sapiens, 72 hours, 10% fetal bovine serum, read-out: ZR-75-1 IC50 class. As to the method: as §1
In series [6] the test system is MDA-MB-231. Put plainly: Tumor cell proliferation inhibition (CellTiter-Glo), MDA-MB-231. It is filed as cell-based. Conditions: Homo sapiens, 72 hours, 10% fetal bovine serum, read-out: MDA-MB-231 IC50 class. On the procedure:
as §1

For series [7], the system named is MDA-MB-231 breast cancer cells. Nature of the series: Cell cycle inhibition experiment (PI staining, flow cytometry). It is filed as cell-based. Particulars: Homo sapiens, MDA-MB-231 cells, 24 h. From the text:
The cell cycle and apoptosis assay kit (Beyotime, C1052) used in this experiment is an assay kit for analyzing the cell cycle and apoptosis using the classic method of Propidium staining (PI staining). Propidium (PI) is a double-stranded DNA fluorescent dye. The combination of propidium and double-stranded DNA can produce fluorescence, and fluorescence intensity is proportional to the amount of double-stranded DNA. After DNA in cells is stained with propidium, the DNA content of the cells can be measured by flow cytometry, and then the cell cycle and apoptosis can be analyzed according to the distribution of DNA content.
MDA-MB-231 cells were seeded into a 6-well plate at 3×10^5 per well and cultured for 24 hours.
In tumor cell cycle, the binding of CDK4 and CDK6 to cyclin D promotes G1 phase into S phase. CDK4/6 inhibitor selectively arrests the G1 phase of tumor cells into S phase. The detection results of the cell cycle of MDA-MB-231 breast cancer cells by flow cytometry indicate that the CDK4/6 inhibitor compounds provided by the present disclosure stop the growth of G1 phase cells and reduce S phase cells in a concentration-dependent manner, as shown in the following table.

Series [8] in a line: Pharmacokinetic (PK) experiment in rats. Particulars: male, SD, plasma, po, rat, intragastric 20 mg/kg. In kind it is in vivo. On the procedure: Male SD rats weighing 300-350 g were fasted overnight prior to the experiment. The compounds to be tested were dissolved in 30% sulfobutyl ether-β-cyclodextrin (SBE-β-CD) and the rats were intragastric administration at 20 mg/kg. The blood was taken from the tails of the rats at 15 min, 30 min, and 1, 2, 3, 4, 6, 8 and 24 hours after administration, with about 0.3 ml of blood at each time point, and then the blood was placed in a centrifuge tube containing K2-EDTA, and centrifuged (2,000 g, 10 min, 4° C.) to take the plasma which was then stored in an ultra-low temperature freezer at −80° C. 50 μL, of plasma sample was mixed with 5 μL of internal standard (IS) and extracted with ethyl acetate. The residue was redissolved in acetonitrile after vacuum drying. The sample was filtered and injected into LC-MS/MS for analysis to determine the concentration of the compounds to be tested.
In the table: Tmax refers to the peak time, Cmax refers to the maximum plasma drug concentration, T1/2 is the half-life, AUClast refers to the area under the 0-24 hour time-concentration curve, AUCinf refers to the area under the 0-Inf time-concentration curve.

Series [9] relates to MDA-MB-435 breast cancer cells. Nature of the series: Pharmacodynamic experiment, MDA-MB-435 xenograft. It is filed as in vivo, mouse. On the procedure:
MDA-MB-435 breast cancer cells were obtained from Shanghai Cell Bank of Chinese Academy of Sciences. Cryopreserved cells were thawed in a 37° C. water bath and then placed in RPMI 1640 medium supplemented with 10% fetal bovine serum (FBS), 1% insulin (Bioman Biotech, Shanghai) and incubated in 5% CO2 of Tissue Culture Incubator. […] The sign of successful transplantation was the formation of a round bulging lump under the skin. Tumor size can be measured approximately two weeks after implantation. The tumor size was measured by a caliper.

The conditions of series [10]: cited from earlier work.
For series [11], the system named is locally advanced or metastatic breast cancer, ER+ / HER2−. Conditions: cited from earlier work.

T1 sequence (Q00534 whole entry): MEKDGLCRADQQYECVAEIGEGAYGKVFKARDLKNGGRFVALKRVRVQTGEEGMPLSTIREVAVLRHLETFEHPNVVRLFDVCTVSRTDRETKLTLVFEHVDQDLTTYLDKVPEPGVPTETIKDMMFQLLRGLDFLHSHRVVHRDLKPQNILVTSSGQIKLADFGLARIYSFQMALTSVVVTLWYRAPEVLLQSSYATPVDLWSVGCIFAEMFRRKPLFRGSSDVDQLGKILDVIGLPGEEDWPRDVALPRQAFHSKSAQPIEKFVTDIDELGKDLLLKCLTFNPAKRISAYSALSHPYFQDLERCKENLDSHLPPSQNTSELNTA
T1 sequence (P30281 whole entry partner): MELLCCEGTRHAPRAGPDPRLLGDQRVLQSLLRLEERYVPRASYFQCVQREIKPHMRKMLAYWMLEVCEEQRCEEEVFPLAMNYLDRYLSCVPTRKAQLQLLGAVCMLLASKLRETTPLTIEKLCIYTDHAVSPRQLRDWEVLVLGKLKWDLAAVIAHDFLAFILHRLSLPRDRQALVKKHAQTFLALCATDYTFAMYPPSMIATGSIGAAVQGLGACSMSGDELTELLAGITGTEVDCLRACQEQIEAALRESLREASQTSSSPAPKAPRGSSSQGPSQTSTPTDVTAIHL
T3 sequence (P11802 whole entry): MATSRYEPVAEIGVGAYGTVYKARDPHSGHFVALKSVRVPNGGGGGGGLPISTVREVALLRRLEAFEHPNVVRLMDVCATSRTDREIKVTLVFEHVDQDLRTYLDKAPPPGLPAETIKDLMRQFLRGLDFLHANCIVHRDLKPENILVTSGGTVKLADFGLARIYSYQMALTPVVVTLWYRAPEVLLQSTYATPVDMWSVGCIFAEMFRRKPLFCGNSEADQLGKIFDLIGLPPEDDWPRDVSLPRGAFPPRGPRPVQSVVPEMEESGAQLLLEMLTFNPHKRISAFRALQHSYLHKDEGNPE
T3 sequence (P30281 whole entry partner): as the sequence (P30281 whole entry partner) above

Broadly, the IC50 is the concentration that gives 50% inhibition. With `CC(=O)c1c(C)c2cnc(Nc3ccc(C4CCN(CCS(=O)(=O)c5ccc(Cl)cc5)CC4)cn3)nc2n(C2CCCC2)c1=O` [Compound 4, 6-acetyl-2-((5-(1-(2-((4-chlorophenyl)sulfonyl)ethyl)piperidin-4-yl)pyridin-2-yl)amino)-8-cyclopentyl-5-methylpyrido[2,3-d]pyrimidin-7(8H)-one], in series [1], the IC50 was more than 500 nM.
Consider `CC(=O)c1c(C)c2cnc(Nc3ccc(C4CCCN(CCS(C)(=O)=O)C4)cn3)nc2n(C2CCCC2)c1=O` (centres unmarked) [Compound 5, 6-acetyl-8-cyclopentyl-5-methyl-2-((5-(1-(2-(methylsulfonyl)ethyl)piperidin-3-yl)pyridin-2-yl)amino)pyrido[2,3-d]pyrimidin-7(8H)-one], for which the IC50 in series [2] was more than 500 nM; in series [3], 10 to 50 nM; in series [1] it was 10 to 50 nM; in [4], 100 to 500 nM; in [5], 100 to 500 nM; in [6], 500 to 1000 nM.
As for `CC(=O)c1c(C)c2cnc(Nc3ccc(C4CCN(CCS(C)(=O)=O)CC4)cn3)cc2n(C2CCCC2)c1=O` [Compound 13, 3-acetyl-1-cyclopentyl-4-methyl-7-((5-(1-(2-(methylsulfonyl)ethyl)piperidin-4-yl)pyridin-2-yl)amino)-1,6-naphthyridin-2(1H)-one], the IC50 was more than 500 nM in series [2]; less than 10 nM in series [3]; 10 to 50 nM in series [1]; 1000 to 5000 nM in series [4]; 500 to 1000 nM in series [5]; 500 to 1000 nM in [6].
On to `CN(C)C(=O)c1cc2cnc(Nc3ccc(N4CCNCC4)cn3)nc2n1C1CCCC1` [LEE011, reference compound], for which the IC50 in series [4] was 500 to 1000 nM; in [5], not above 100 nM; in series [6], 1000 to 5000 nM.
With `CCN1CCN(Cc2ccc(Nc3ncc(F)c(-c4cc(F)c5nc(C)n(C(C)C)c5c4)n3)nc2)CC1` [LY2835219, reference compound], the IC50 is 100 to 500 nM in series [4]; not above 100 nM in series [5]; 100 to 500 nM in series [6]; 35.2 ± 8.9 nM in series [7] (read-out: IC50 (nM) G1 arrest); 42.9 ± 13.5 nM in [7] (read-out: IC50 (nM) S decrease).
A word on the Cmax: it is the highest concentration seen after dosing. As usually defined, the Tmax is the time at which the peak concentration occurs. What is called half-life is the time in which the quantity being followed falls by half. A word on the AUC(0-t): it is exposure summed from dosing to a finite time, without extrapolation to infinity. High values mean more exposure, low ones less exposure. Broadly, the AUC(0-inf) is the area under the concentration-time curve extrapolated to infinity. The AUC is the area under the concentration-time curve, a measure of exposure. As to `CC(=O)c1c(C)c2cnc(Nc3ccc(N4CCNCC4)cn3)nc2n(C2CCCC2)c1=O` [PD-0332991, Palbociclib, reference compound], the IC50 in [4] was 100 to 500 nM; in [5], 100 to 500 nM; in [6], 100 to 500 nM; in series [7] (read-out: IC50 (nM) G1 arrest) it was 42.4 ± 16.1 nM; in series [7] (read-out: IC50 (nM) S decrease), 45.1 ± 10.9 nM. The same compound returned a Cmax in series [8] of 213 ng/mL. In series [8], the time to peak (Tmax) was determined as 1.2 h. The compound further showed a half-life in [8] of 10 h. The compound further came in with an AUC(0-t) in [8] (0-24 hour) of 1250 ng·h/mL. The AUC(0-inf) in series [8] (0-Inf) worked out at 1400 ng·h/mL. Further, in series [9] (after 6 days of oral 150 mg/kg once daily), the “average body weight of the mice” value was “significantly reduced”. Moreover, the T/C value in series [9] (after 14 days of oral administration, PD-0332991 150 then 100 mg/kg once daily, Compound 1 75 mg/kg twice daily) is 41%; in [9] (day 6 after discontinuation (D20)), 35%. In [10] (Phase I clinical), the “elimination half-life (Average)” value is 25.9 h. Besides, the AUC in series [10] (Phase I, single oral dose of 25-150 mg) is 58 to 641 ng·h/mL. Besides, the side effects entry in series [11] (clinical, Pfizer Press Release) is “leukocyte reduction and fatigue”.
`N#Cc1ccc(C(c2ccc(C#N)cc2)n2cncn2)cc1` [letrozole]: in series [11] (phase II, postmenopausal women, ER+ HER2− breast cancer, p=0.0004), the “progression-free survival (PFS)” value was 10.2 months.
